Assay results: patent US11964971B2, “Methods and compositions for modulating splicing” (Skyhawk Therapeutics, Inc., priority 2019, dated 2024)

Assays:
MDR1 (P-gp) = assay: MDCK-MDR1 permeability assay, blood-brain-barrier penetration potential; conditions: dog, MDCK-MDR1, pH 7.4, MDCK-MDR1 Efflux Ratio
Method: (§1) Experimental Procedure: MDR1-MDCK cell monolayers are grown to confluence on collagen-coated, microporous membranes in 12-well assay plates. The permeability assay buffer is Hanks' balanced salt solution containing 10 mM HEPES and 15 mM glucose at a pH of 7.4. The buffer in the receiver chamber also contained 1% bovine serum albumin. The dosing solution concentration is 5 μM of test article in the assay buffer. Cell monolayers are dosed on the apical side (A-to-B) or basolateral side (B-to-A) and incubated at 37° C. with 5% CO2 in a humidified incubator. Samples are taken from the donor and receiver chambers at 120 minutes. Each determination is performed in duplicate. The flux of lucifer yellow is also measured post-experimentally for each monolayer to ensure no damage was inflicted to the cell monolayers during the flux period. All samples are assayed by LC-MS/MS using electrospray ionization.
(§2) Analytical Method: Liquid Chromatography • Column: Waters ACQUITY UPLC BEH Phenyl 30×2.1 mm, 1.7 μm • M.P. Buffer: 25 mM ammonium formate buffer, pH 3.5 • Aqueous Reservoir (A): 90% water, 10% buffer • Organic Reservoir (B): 90% acetonitrile, 10% buffer • Flow Rate: 0.7 mL/minute • Gradient Program:
(§3) • Total Run Time: 1.00 minute • Autosampler: 2 μL injection volume • Wash1: water/methanol/2-propanol:1/1/1; with 0.2% formic acid • Wash2: 0.1% formic acid in water • Brain Penetration • Potential Classification: A-B Papp≥3.0 and Efflux Ratio<3.0: High • A-B Papp≥3.0 and 10>Efflux Ratio≥3.0: Moderate • A-B Papp≥3.0 and Efflux Ratio≥10: Low • A-B Papp<3.0: Low

SMN protein = SMN protein assay (MSD) in SMA patient fibroblasts (GM03813); format: cell-based, human
Method: Compounds are tested on spinal muscular atrophy (SMA) patient fibroblasts (GM03813, Coriell) at doses ranging from 2.5 μM to 0.6 nM. 7000 cells/well are seeded in 96-well plates. Compounds are incubated for 48 hours and the cells were lysed with 100 μL of lysis buffer. 20 μL of lysate is used for SMN protein measurement by Mesoscale Discovery (MSD) assay developed by PharmOptima (Michigan). A standard curve prepared with SMN protein ranging from […] is used in each MSD plate to calculate the absolute SMN protein amount in each sample.

[1] = system: MDR1-MDCK cell monolayers; conditions: dog, MDCK-MDR1, 120 min, 5 μM, pH 7.4
Method: as §1, §2, §3

MDR1 = assay: in vitro; conditions: dog; for Papp A→B at 120 min, 5 μM: MDCK-MDR1, pH 7.4, MDCK-MDR1: Papp A-B (10^−6, cm/s); for Papp B→A at 120 min, 5 μM: MDCK-MDR1, pH 7.4, MDCK-MDR1: Papp B-A (10^−6, cm/s)
Method: as §1, §2, §3

| Structure (SMILES) | efflux ratio at 120 min, 5 μM (MDR1 (P-gp)) | EC50 (SMN protein) [nM] | MDCK-MDR1: % Recov A-B (%) [1] [%] | MDCK-MDR1: % Recov B-A (%) [1] [%] | Papp A→B at 120 min, 5 μM (MDR1) [×10⁻⁶ cm/s] | Papp B→A at 120 min, 5 μM (MDR1) [×10⁻⁶ cm/s] |
| --- | --- | --- | --- | --- | --- | --- |
| CN(c1cnc(-c2cc(F)c(-n3ccnn3)cc2O)cn1)[C@@H]1CC2CC[C@H](N2)[C@@H]1F (single isomer, unassigned) [Compound 21E1] | 5 | 501 to 10000 | 83 | 91 | 8.48 | 43.5 |
| CN(c1cnc(-c2cc(F)c(-n3ccnn3)cc2O)cn1)[C@H]1C[C@@H]2CCC(N2)[C@H]1F (single isomer, unassigned) [Compound 21E2] | 4 | 501 to 10000 | 78 | 85 | 11.3 | 48 |
| CN(c1cnc(-c2ccc(-c3cn[nH]c3)cc2O)cn1)[C@@H]1CC2CC[C@H](N2)[C@H]1F (single isomer, unassigned) [Compound 27E1] | 7 | 501 to 10000 | 77 | 79 | 3.87 | 28.7 |
| CN(c1cnc(-c2cc(F)c(-c3cnn(CF)c3)cc2O)cn1)[C@@H]1CC2CC[C@H](N2)[C@@H]1F (single isomer, unassigned) [Compound 29E1] | 3 | 16 to 50 | 38 | 56 | 6.29 | 17.2 |
| COc1cc(-c2cc(O)c(-c3cnc(N(C)[C@@H]4CC5CC[C@H](N5)[C@@H]4F)cn3)cc2F)ccn1 (single isomer, unassigned) [Compound 30E1] | 1 | 501 to 10000 | 13 | 49 | 3.95 | 5.24 |
| COc1cc(-c2cc(O)c(-c3cnc(N(C)[C@H]4C[C@@H]5CCC(N5)[C@H]4F)cn3)cc2F)ccn1 (single isomer, unassigned) [Compound 30E2] | 2 | 51 to 100 | 10 | 37 | 2.55 | 4.14 |
| COc1cc(-c2cc(O)c(-c3cnc(N(C)[C@@H]4CC5CC[C@H](N5)[C@@H]4F)cn3)cc2F)cc(F)n1 (single isomer, unassigned) [Compound 31E1] | 2 | 501 to 10000 | 58 | 65 | 0.48 | 0.8 |
| COc1cc(-c2cc(O)c(-c3cnc(N(C)[C@H]4C[C@@H]5CCC(N5)[C@H]4F)cn3)cc2F)cc(F)n1 (single isomer, unassigned) [Compound 31E2] | 2 | 16 to 50 | 59 | 67 | 0.33 | 0.5 |
| CN(c1cnc(-c2cc(F)c(-c3ccn(CF)c(=O)c3)cc2O)cn1)[C@H]1C[C@@H]2CCC(N2)[C@H]1F (single isomer, unassigned) [Compound 32E2] | 20 | 16 to 50 | 86 | 88 | 2.58 | 51.2 |
| CN(c1cnc(-c2cc(F)c(-c3cc(=O)n(C)cn3)cc2O)cn1)[C@H]1C[C@@H]2CCC(N2)[C@H]1F (single isomer, unassigned) [Compound 33E2] | 18 | 501 to 10000 | 91 | 99 | 3.5 | 62.7 |
| Cn1cc(-c2cc(O)c(-c3cnc(N(C4CC4)[C@H]4C[C@@H]5CCC(N5)[C@H]4F)cn3)cc2F)cn1 (single isomer, unassigned) [Compound 35E2] | 4 | 501 to 10000 | 32 | 61 | 4.64 | 17.9 |
| COc1cc(-c2cc(O)c(-c3cnc(N(C4CC4)[C@@H]4CC5CC[C@H](N5)[C@@H]4F)cn3)cc2F)ccn1 (single isomer, unassigned) [Compound 36E1] | 3 | 501 to 10000 | 8 | 37 | 0.52 | 1.41 |
| COc1cc(-c2cc(O)c(-c3cnc(N(C4CC4)[C@H]4C[C@@H]5CCC(N5)[C@H]4F)cn3)cc2F)ccn1 (single isomer, unassigned) [Compound 36E2] | 2 | 501 to 10000 | 10 | 40 | 0.59 | 1.3 |
| COc1cc(-c2cc(O)c(-c3cnc(N(C4CC4)[C@@H]4CC5CC[C@H](N5)[C@@H]4F)cn3)cc2F)cc(F)n1 (single isomer, unassigned) [Compound 37E1] | 2 | 501 to 10000 | 18 | 53 | 1.41 | 2.73 |
| COc1cc(-c2cc(O)c(-c3cnc(N(C4CC4)[C@H]4C[C@@H]5CCC(N5)[C@H]4F)cn3)cc2F)cc(F)n1 (single isomer, unassigned) [Compound 37E2] | 3 | 501 to 10000 | 19 | 45 | 0.94 | 2.58 |
| Cn1ccc(-c2cc(O)c(-c3cnc(N(C4CC4)[C@@H]4CC5CC[C@H](N5)[C@@H]4F)cn3)cc2F)cc1=O (single isomer, unassigned) [Compound 38E1] | 37 | 501 to 10000 | 81 | 94 | 1.47 | 54.9 |
| Cn1ccc(-c2cc(O)c(-c3cnc(N(C4CC4)[C@H]4C[C@@H]5CCC(N5)[C@H]4F)cn3)cc2F)cc1=O (single isomer, unassigned) [Compound 38E2] | 33 | 501 to 10000 | 82 | 82 | 1.75 | 57.7 |
| O=c1cc(-c2cc(O)c(-c3cnc(N(C4CC4)[C@@H]4CC5CC[C@H](N5)[C@@H]4F)cn3)cc2F)ccn1CF (single isomer, unassigned) [Compound 39E1] | 31 | 501 to 10000 | 70 | 89 | 2.1 | 64.2 |
| O=c1cc(-c2cc(O)c(-c3cnc(N(C4CC4)[C@H]4C[C@@H]5CCC(N5)[C@H]4F)cn3)cc2F)ccn1CF (single isomer, unassigned) [Compound 39E2] | 24 | 501 to 10000 | 82 | 81 | 2.58 | 62 |
